Source: the supplement of paper PMC10307832

Legend:
Assay in all cases: relative viability (nuclei count vs DMSO), 5 days (fraction); higher = more cells survive
[1] = compound: C1=CC=C2C(=C1)N=C(S2)C(C#N)C3=NC(=NC=C3)NCCC4=CN=CC=C4 + NC(=O)Nc1cc(-c2cccc(F)c2)sc1C(=O)N[C@H]1CCCNC1 [AZD7762] (partner 0.2 µM)
Outline: (§1)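 Medians of duplicate plates are given as relative viability. That measure is the nuclei count in treated wells divided by the count in vehicle wells. Counts were taken on 4× images of lung cancer cell lines in 1536-well plates, 5 days after pin-tool dosing the day after seeding with one drug alone or a fixed anchor-drug dose plus five library-drug doses (not always all listed) in √10 steps.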

[2] = compound: COc1cc(N2CCC(N3CCN(C)CC3)CC2)ccc1Nc1ncc(Cl)c(Nc2ccccc2S(=O)(=O)C(C)C)n1 [NVP-TAE684] + Cc1nc(Nc2ncc(C(=O)Nc3c(C)cccc3Cl)s2)cc(N2CCN(CCO)CC2)n1 [Dasatinib] (partner 0.075 µM)
Outline: as §1

[3] = compound: COc1cc2/c(=N/c3ccc(Br)cc3F)nc[nH]c2cc1OCC1CCN(C)CC1 [Vandetanib] + Nc1nc2[nH]cc(CCc3ccc(C(=O)N[C@@H](CCC(=O)O)C(=O)O)cc3)c2c(=O)[nH]1 [Pemetrexed] (partner 0.2 µM)
Outline: as §1

[4] = compound: C#Cc1cccc(Nc2ncnc3cc(OC)c(OCCCCCCC(=O)NO)cc23)c1 [CUDC-101] + CC1(C)CCC(c2ccc(Cl)cc2)=C(CN2CCN(c3ccc(C(=O)NS(=O)(=O)c4ccc(N[C@H](CCN5CCOCC5)CSc5ccccc5)c(S(=O)(=O)C(F)(F)F)c4)cc3)CC2)C1 [Navitoclax] (partner 0.5 µM)
Outline: as §1

| Cell Line | relative viability ([1]; first compound 0.005 µM) | relative viability ([1]; first compound 0.01581 µM) | relative viability ([1]; first compound 0.05 µM) | relative viability ([1]; first compound 0.1581 µM) | relative viability ([1]; first compound 0.5 µM) | relative viability ([2]; first compound 0.2 µM) | relative viability ([2]; first compound 0.6325 µM) | relative viability ([2]; first compound 2 µM) | relative viability ([3]; first compound 0.02 µM) | relative viability ([3]; first compound 0.06325 µM) | relative viability ([3]; first compound 0.2 µM) | relative viability ([3]; first compound 0.6325 µM) | relative viability ([3]; first compound 2 µM) | relative viability ([4]; first compound 0.01 µM) | relative viability ([4]; first compound 0.03162 µM) | relative viability ([4]; first compound 0.1 µM) | relative viability ([4]; first compound 0.3162 µM) | relative viability ([4]; first compound 1 µM) |
| --- | --- | --- | --- | --- | --- | --- | --- | --- | --- | --- | --- | --- | --- | --- | --- | --- | --- | --- |
| NCI-H522 | 0.885 | 0.654 | 0.768 | 0.787 | 0.839 | 1.09 | 0.983 | 0.737 | 0.941 | 1.02 | 0.957 | 1.25 | 0.999 |  |  |  |  |  |
| RERF-LC-KJ | 0.984 | 0.977 | 1.02 | 1.23 | 0.964 | 0.667 | 0.596 | 0.327 | 0.46 | 0.459 | 0.497 | 0.418 | 0.46 | 1.17 | 1.07 | 1.21 | 1.17 | 0.666 |
| A-427 | 0.816 | 0.727 | 0.682 | 0.764 | 0.645 | 0.789 | 0.703 | 0.554 | 0.907 | 1 | 1.06 | 0.986 | 0.927 | 0.978 | 0.919 | 0.939 | 0.926 | 0.924 |
| EKVX | 0.704 | 0.777 | 0.682 | 0.85 | 0.604 | 0.367 | 0.469 | 0.202 | 0.385 | 0.373 | 0.459 | 0.349 | 0.363 | 0.972 | 0.977 | 0.874 | 0.941 | 0.593 |
| NCI-H460 | 0.508 | 0.641 | 0.672 | 0.69 | 0.43 | 0.703 | 0.285 | 0.0445 | 0.0623 | 0.0604 | 0.0622 | 0.0619 | 0.0589 | 1.23 | 1.12 | 1.15 | 1.06 | 0.965 |
| HARA | 0.2 | 0.358 | 0.38 | 0.275 | 0.356 | 0.24 | 0.172 | 0.141 | 0.246 | 0.239 | 0.243 | 0.203 | 0.213 | 1.13 | 1.16 | 1.09 | 1.14 | 0.837 |
| NCI-H1944 | 0.541 | 0.557 | 0.603 | 0.466 | 0.456 | 0.212 | 0.202 | 0.161 | 0.615 | 0.566 | 0.682 | 0.564 | 0.58 | 1.02 | 1.03 | 1.01 | 1.09 | 0.861 |
| BEN | 0.759 | 0.609 | 0.689 | 0.85 | 0.774 | 0.37 | 0.287 | 0.28 | 0.725 | 0.67 | 0.635 | 0.714 | 0.516 | 0.0901 | 0.0957 | 0.427 | 0.137 | 0.0346 |
| PC-14 | 0.334 | 0.238 | 0.396 | 0.514 | 0.302 | 0.242 | 0.11 | 0.0369 | 0.133 | 0.115 | 0.123 | 0.179 | 0.165 | 1.08 | 1.05 | 1.06 | 0.754 | 0.265 |
| NCI-H322M | 0.522 | 0.522 | 0.436 | 0.564 | 0.56 | 0.241 | 0.223 | 0.246 | 0.579 | 0.615 | 0.641 | 0.604 | 0.51 | 1.21 | 1.18 | 0.954 | 1.08 | 0.795 |
| NCI-H1651 | 0.428 | 0.463 | 0.533 | 0.509 | 0.471 | 0.326 | 0.321 | 0.146 | 0.579 | 0.583 | 0.555 | 0.5 | 0.505 | 1.13 | 0.938 | 1.22 | 1.04 | 0.887 |
| LCLC-97TM1 | 0.153 | 0.192 | 0.342 | 0.291 | 0.21 | 0.894 | 0.792 | 0.275 | 0.18 | 0.184 | 0.166 | 0.181 | 0.181 | 0.416 | 0.304 | 0.593 | 0.377 | 0.306 |
| NCI-H727 | 0.788 | 0.533 | 0.667 | 0.626 | 0.618 | 0.383 | 0.273 | 0.232 |  |  |  |  |  | 0.377 | 0.413 | 0.417 | 0.304 | 0.269 |
| NCI-H1623 |  |  |  |  |  | 0.514 | 0.502 | 0.439 |  |  |  |  |  |  |  |  |  |  |
| NCI-H1666 | 0.956 | 0.764 | 0.817 | 0.805 | 0.803 | 0.813 | 0.708 | 0.46 | 0.793 | 0.879 | 0.881 | 0.803 | 0.874 | 1.07 | 0.796 | 1 | 1.04 | 0.548 |
| IA-LM |  |  |  |  |  |  |  |  |  |  |  |  |  | 0.685 | 0.806 | 0.698 | 0.832 | 0.281 |
| NCI-H1792 |  | 0.631 | 0.8 | 1.28 | 0.37 | 0.623 | 0.76 | 0.25 | 0.834 | 0.733 | 0.733 | 0.822 | 0.771 | 0.586 | 0.636 | 0.56 | 0.625 | 0.582 |
| NCI-H1299 |  |  |  |  |  |  |  |  |  |  |  |  |  | 1.05 | 0.992 | 1.12 | 1.06 | 1.02 |
| HCC-366 | 0.199 | 0.254 | 0.288 | 0.279 | 0.129 | 0.827 | 0.508 | 0.233 | 0.128 | 0.149 | 0.155 | 0.17 | 0.176 | 1.1 | 0.875 | 1.06 | 1.08 | 0.844 |
| NCI-H1437 | 1.12 | 1.12 | 1.11 | 1.13 | 0.968 | 0.363 | 0.272 | 0.128 | 0.308 | 0.306 | 0.307 | 0.319 | 0.304 | 1.13 | 1.07 | 1.22 | 1.16 | 0.931 |
